Legend:
[1] = Compound induced cellular toxicity in HepG2 cells, ATPlite 1Step; assay type: cell-based; conditions: human, three days exposure, 50% reduction of total ATP vs no drug controls
Description: At day 3, post seeding cells are treated with ATPlite 1Step according to the manufacturer's instructions.

HBV in 2.2.15 cells = assay: 2.2.15 cells: viral product in cell lysates quantified via quantitative real time PCR; assay type: cell-based, hepatitis B virus (HBV); conditions: Hepatitis B virus, 120 h, day 5 post treatment, 50% reduction of viral product vs no drug controls, readout (qPCR, HBsAg or HBeAg) not specified for the column
How it was run: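 HBV product was measured at day 5 by lysate qPCR or by supernatant HBsAg/HBeAg ELISA, in 2.2.15 cells seeded at 35,000/well and exposed to 5-fold compound dilution series (0.5% DMSO). EC50 is 50% reduction of viral product relative to untreated controls.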

Q: Which results are given for `O=C(O)c1cn2c(cc1=O)-c1c(-c3cccc(F)c3)c(-c3cccc(F)c3)nn1CC2` [Example 201, 1,2-bis(3-fluorophenyl)-10-oxo-5,6-dihydro-10H-pyrazolo[1,5-a]pyrido[2,1-c]pyrazine-9-carboxylic acid]?
A: CC50 at 3 days [1]: > 25 µM; EC50 (HBV in 2.2.15 cells): < 0.1 µM

Q: Which results are given for `CC(C)[C@@H]1Cn2nc(-c3cccc(F)c3)c(-c3cccc(F)c3)c2-c2cc(=O)c(C(=O)O)cn21` [Example 181, (R)-1,2-bis(3-fluorophenyl)-6-isopropyl-10-oxo-5,6-dihydro-10H-pyrazolo[1,5-a]pyrido[2,1-c]pyrazine-9-carboxylic acid]?
A: CC50 at 3 days [1]: 10 to 25 µM; EC50 (HBV in 2.2.15 cells): < 0.1 µM

Q: What does the source list for `CC(C)(C)[C@@H]1Cn2cnc(-c3ccc(F)cc3)c2-c2cc(=O)c(C(=O)O)cn21` [Example 207, (R)-6-(tert-butyl)-1-(4-fluorophenyl)-10-oxo-5,6-dihydro-10H-imidazo[1,5-a]pyrido[2,1-c]pyrazine-9-carboxylic acid]?
A: CC50 at 3 days [1]: > 25 µM; EC50 (HBV in 2.2.15 cells): < 0.1 µM

Q: For `CC(C)(C)[C@@H]1Cn2ncc(-c3ccccc3F)c2-c2cc(=O)c(C(=O)O)cn21` [Example 104, (R)-6-(tert-butyl)-1-(2-fluorophenyl)-10-oxo-5,6-dihydro-10H-pyrazolo[1,5-a]pyrido[2,1-c]pyrazine-9-carboxylic acid], which CC50 at 3 days [1] is on record?
A: 10 to 25 µM

Q: What about the EC50 (HBV in 2.2.15 cells) of the same molecule?
A: < 0.1 µM

Q: Which CC50 at 3 days [1] does the source give for `CC(C)(C)[C@@H]1Cn2nc(-c3cccc4c3OCCCO4)cc2-c2cc(=O)c(C(=O)O)cn21` [Example 43, (R)-6-(tert-butyl)-2-(3,4-dihydro-2H-benzo[b][1,4]dioxepin-6-yl)-10-oxo-5,6-dihydro-10H-pyrazolo[1,5-a]pyrido[2,2-c]pyrazine-12-carboxylic acid] here?
A: > 25 µM

Q: What about the EC50 (HBV in 2.2.15 cells) of the same molecule?
A: < 0.1 µM

Q: Which CC50 at 3 days [1] does the source give for `CC(C)(C)[C@@H]1Cn2nc(C3CC3)c(-c3ccccc3)c2-c2cc(=O)c(C(=O)O)cn21` [Example 149, (R)-6-(tert-butyl)-2-cyclopropyl-10-oxo-1-phenyl-5,6-dihydro-10H-pyrazolo[1,5-a]pyrido[2,1-c]pyrazine-9-carboxylic acid] here?
A: > 25 µM

Q: And the EC50 (HBV in 2.2.15 cells)?
A: < 0.1 µM

Q: With `COc1ccc(-c2c(C3CC3)nn3c2-c2cc(=O)c(C(=O)O)cn2[C@H](C(C)(C)C)C3)cc1` [Example 158, (R)-6-(tert-butyl)-2-cyclopropyl-1-(4-methoxyphenyl)-10-oxo-5,6-dihydro-10H-pyrazolo[1,5-a]pyrido[2,1-c]pyrazine-9-carboxylic acid] as the molecule, how does the CC50 at 3 days [1] read?
A: > 25 µM

Q: And the EC50 (HBV in 2.2.15 cells)?
A: < 0.1 µM

Q: What does the source list for `COc1cccc(-c2nn3c(c2-c2cccc(OC)c2)-c2cc(=O)c(C(=O)O)cn2[C@H](C(C)(C)C)C3)c1` [Example 97, (R)-6-(tert-butyl)-1,2-bis(3-methoxyphenyl)-10-oxo-5,6-dihydro-10H-pyrazolo[1,5-a]pyrido[2,1-c]pyrazine-9-carboxylic acid]?
A: CC50 at 3 days [1]: > 25 µM; EC50 (HBV in 2.2.15 cells): < 0.1 µM

Q: Which results are given for `CC(C)(C)[C@@H]1Cn2nc(-c3ccc4c(c3)OCCO4)cc2-c2cc(=O)c(C(=O)O)cn21` [Example 18, (R)-6-(tert-butyl)-2-(2,3-dihydrobenzo[b][1,4]dioxin-6-yl)-10-oxo-5,6-dihydro-10H-pyrazolo[1,5-a]pyrido[2,2-c]pyrazine-12-carboxylic acid]?
A: CC50 at 3 days [1]: > 25 µM; EC50 (HBV in 2.2.15 cells): < 0.1 µM

Q: Which results are given for `CC(C)(C)[C@@H]1Cn2nc(-c3ccccc3F)cc2-c2cc(=O)c(C(=O)O)cn21` [Example 3, (R)-6-(tert-butyl)-2-(2-fluorophenyl)-10-oxo-5,6-dihydro-10H-pyrazolo[1,5-a]pyrido[2,2-c]pyrazine-12-carboxylic acid]?
A: CC50 at 3 days [1]: > 25 µM; EC50 (HBV in 2.2.15 cells): < 0.1 µM

Q: Which CC50 at 3 days [1] does the source give for `CC(C)(C)[C@@H]1Cn2ncc(-c3cccc4c3OC(F)(F)O4)c2-c2cc(=O)c(C(=O)O)cn21` [Example 111, (R)-6-(tert-butyl)-1-(2,2-difluorobenzo[d][1,3]dioxol-4-yl)-10-oxo-5,6-dihydro-10H-pyrazolo[1,5-a]pyrido[2,1-c]pyrazine-9-carboxylic acid] here?
A: > 25 µM

Q: And the EC50 (HBV in 2.2.15 cells)?
A: < 0.1 µM

Q: What does the source list for `CC(C)(C)[C@@H]1Cn2nc(-c3cccc4c3sc3ccccc34)cc2-c2cc(=O)c(C(=O)O)cn21` [Example 70, (R)-6-(tert-butyl)-2-(dibenzo[b,d]thiophen-4-yl)-10-oxo-5,6-dihydro-10H-pyrazolo[1,5-a]pyrido[2,2-c]pyrazine-12-carboxylic acid]?
A: CC50 at 3 days [1]: > 25 µM; EC50 (HBV in 2.2.15 cells): 0.2 to 1 µM

Q: With `CCOc1ccccc1-c1nc2n(n1)C[C@@H](C(C)(C)C)n1cc(C(=O)O)c(=O)cc1-2` [Example 86, (R)-6-(tert-butyl)-2-(2-ethoxyphenyl)-10-oxo-5,6-dihydro-10H-pyrido[1,2-a][1,2,4]triazolo[5,2-c]pyrazine-12-carboxylic acid] as the molecule, how does the CC50 at 3 days [1] read?
A: > 25 µM

Q: And the EC50 (HBV in 2.2.15 cells)?
A: < 0.1 µM

Q: For `CC(C)(C)[C@@H]1Cn2nc(-c3cccc4c3OC(F)(F)O4)c(Cl)c2-c2cc(=O)c(C(=O)O)cn21` [Example 88, (R)-6-(tert-butyl)-1-chloro-2-(2,2-difluorobenzo[d][1,3]dioxol-4-yl)-10-oxo-5,6-dihydro-10H-pyrazolo[1,5-a]pyrido[2,1-c]pyrazine-9-carboxylic acid], which CC50 at 3 days [1] is on record?
A: > 25 µM

Q: What about the EC50 (HBV in 2.2.15 cells) of the same molecule?
A: < 0.1 µM

Q: With `CC(C)(C)[C@@H]1Cn2nc(-c3ccccc3OC3CCCC3)cc2-c2cc(=O)c(C(=O)O)cn21` [Example 76, (R)-6-(tert-butyl)-2-(2-(cyclopentyloxy)phenyl)-10-oxo-5,6-dihydro-10H-pyrazolo[1,5-a]pyrido[2,2-c]pyrazine-12-carboxylic acid] as the molecule, how does the CC50 at 3 days [1] read?
A: > 25 µM

Q: What about the EC50 (HBV in 2.2.15 cells) of the same molecule?
A: < 0.1 µM

Q: What does the source list for `C[C@@H]1Cn2nc(-c3cccc(F)c3)c(-c3cccc(F)c3)c2-c2cc(=O)c(C(=O)O)cn21` [Example 205, (R)-1,2-bis(3-fluorophenyl)-6-methyl-10-oxo-5,6-dihydro-10H-pyrazolo[1,5-a]pyrido[2,1-c]pyrazine-9-carboxylic acid]?
A: CC50 at 3 days [1]: 10 to 25 µM; EC50 (HBV in 2.2.15 cells): < 0.1 µM

Q: For `CC(C)(C)[C@@H]1Cn2nc(-c3ccc(F)cc3)cc2-c2cc(=O)c(C(=O)O)cn21` [Example 1, (R)-6-(tert-butyl)-2-(4-fluorophenyl)-10-oxo-5,6-dihydro-10H-pyrazolo[1,5-a]pyrido[2,2-c]pyrazine-12-carboxylic acid], which CC50 at 3 days [1] is on record?
A: > 25 µM

Q: What about the EC50 (HBV in 2.2.15 cells) of the same molecule?
A: < 0.1 µM

Q: What does the source list for `CC(C)(C)[C@@H]1Cn2nc(-c3c(O)cccc3F)cc2-c2cc(=O)c(C(=O)O)cn21` [Example 47, (R)-6-(tert-butyl)-2-(2-fluoro-6-hydroxyphenyl)-10-oxo-5,6-dihydro-10H-pyrazolo[1,5-a]pyrido[2,2-c]pyrazine-12-carboxylic acid]?
A: CC50 at 3 days [1]: > 25 µM; EC50 (HBV in 2.2.15 cells): < 0.1 µM

Q: Which CC50 at 3 days [1] does the source give for `CC(C)(C)[C@@H]1Cn2ncc(-c3ccc(F)c(F)c3)c2-c2cc(=O)c(C(=O)O)cn21` [Example 110, (R)-6-(tert-butyl)-1-(3,4-difluorophenyl)-10-oxo-5,6-dihydro-10H-pyrazolo[1,5-a]pyrido[2,1-c]pyrazine-9-carboxylic acid] here?
A: < 10 µM

Q: And the EC50 (HBV in 2.2.15 cells)?
A: < 0.1 µM

Q: For `COc1cccc(F)c1-c1cc2n(n1)C[C@@H](C(C)(C)C)n1cc(C(=O)O)c(=O)cc1-2` [Example 50, (R)-6-(tert-butyl)-2-(2-fluoro-6-methoxyphenyl)-10-oxo-5,6-dihydro-10H-pyrazolo[1,5-a]pyrido[2,2-c]pyrazine-12-carboxylic acid], which CC50 at 3 days [1] is on record?
A: > 25 µM

Q: What about the EC50 (HBV in 2.2.15 cells) of the same molecule?
A: 0.2 to 1 µM
